Patent US7674609B2, “Culture of Crypthecodinium cohnii and microorganisms derived therefrom” (The University of Hull, priority 2001, dated 2010)

Columns and labels:
Format in all cases: cell-based
[1] = test system: Crypthecodinium cohnii ATCC 30772; test: Culture of C. cohnii in acetic acid pH-stat fermenter with propionic acid in the medium (Example 1); conditions: propionic acid 1% v/v
Method: The growth medium used for the first culture contained (initially) propionic acid (1% v/v), sodium acetate (8 g/L), yeast extract (7.5 g/L) and sea salts (25 g/L). The growth medium used for the second culture was the same but with the propionic acid omitted. Before use, the pH of each growth medium was adjusted to 6.5 by the addition of NaOH and the medium was then autoclaved at 121° C. for 1 hour.
The first and second cultures used the strain of Crypthecodinium cohnii available from the American Type Culture Collection and identified by the number 30772 (C. cohnii ATCC 30772).
The apparatus included a 5 L fermenter 10 of known type. The fermenter 10 was provided with a pH electrode 11 that was positioned in the fermenter 10 for monitoring the pH of the growth medium in the fermenter 10. The pH electrode 11 was connected via a control device 12 to a pump 13. The control device 12 was programmed to cause the pump 13 to pump acetic acid (50% v/v) from a reservoir 14 into the fermenter 10 when the pH electrode 11 detected a pH greater than a predetermined value (in this case pH 6.5 for both the first and second cultures).
If, during the culture, the pH fell below 6.5, the pH was brought back to 6.5 by adding KOH (2M). This was done automatically.
The fermenter 10 was also provided with a thermometer (not shown) and a heater (not shown) arranged to maintain the growth medium (and the C. cohnii 30772) at a desired temperature within the fermenter 10 (in this case 27° C. for both the first and second cultures).
The fermenter 10 was also provided with an aerator (not shown) that was connected to a source of air (not shown) for aerating the growth medium within the fermenter 10. An oxygen sensor (not shown) was positioned for measuring dissolved oxygen concentration in the growth medium within the fermenter 10. A stirrer (not shown) was provided for stirring the growth medium (and the C. cohnii 30772). The oxygen sensor was connected to the stirrer by a control device (not shown) for varying the speed of the stirrer in response to the oxygen concentration detected by the oxygen sensor so as to maintain the oxygen concentration at a desired level. For both the first and second cultures the aerator was set to aerate the culture at a rate of 1 volume of air per volume of culture per minute. The control device connected to the oxygen sensor and the stirrer was set so that the dissolved oxygen concentration was maintained above 30% of air saturation (the initial stirrer speed being 300 rpm).
To start each culture, 3.5 L of the appropriate growth medium was added to the fermenter 10. An inoculum of C. cohnii 30772 in 880 ml medium containing acetic acid/acetate, yeast extract and sea salt was then added to the fermenter (the preparation of the inoculum is described below). The fermenter 10 was then closed and the culture was heated to the desired operating temperature, aerated and stirred as described above.
In both the first and second cultures, the control device 12 caused the pump 13 to pump acetic acid into the fermenter 10 so as to maintain the pH at 6.5. This process, sometimes referred to as pH-stat operation, is described in detail in WO 01/04338. Briefly, it is believed that the Crypthecodinium cohnii metabolises the acetate in the growth medium (either in the form of acetate or acetic acid) as a carbon source. […]
During the first and second cultures, samples of the cultures were taken at time intervals. Each sample was analysed to determine dry cell weight. […]

[2] = test system: Crypthecodinium cohnii 30772; test: Culture of C. cohnii with glucose as main carbon source with propionic acid in the medium (Example 2); conditions: propionic acid 1% v/v, glucose 60 g/L
Method: The growth medium used for the third culture contained (initially) propionic acid (1% v/v), glucose (60 g/L—autoclaved separately), yeast extract (7.5 g/L) and sea salts (25 g). The growth medium used for the fourth culture was the same but with the propionic acid omitted. In each case, the pH was 6.5. The microorganism used was Crypthecodinium cohnii 30772. For each of the third and fourth cultures, the Crypthecodinium cohnii was grown in a 5 L fermenter. The cultures were initiated by inoculating 3.5 L of the appropriate growth medium with 350 ml of a 3 day old shaking-flask culture of Crypthecodinium cohnii. The inoculum for the third culture was prepared using the same growth medium as that used in the third culture (i.e., with propionic acid) and the inoculum for the fourth culture was prepared using the same growth medium as that used in the fourth culture (i.e., without propionic acid). Cultures were aerated at 1 volume of air per volume of culture per minute and the dissolved oxygen concentration was maintained above 30% of air saturation by increasing the stirrer speed as required, from an initial speed of 300 rpm. The growth temperature was 27° C. and the pH was maintained at 6.5 by addition of KOH (2 M) and H2SO4 (1 M).

[3] = test system: Crypthecodinium cohnii (ATCC 30541); test: Culture of C. cohnii 30541 in acetic acid pH-stat fermenters with propionic acid (Example 3)
Method: The value of including propionic acid in the culture medium was also shown with another strain of Crypthecodinium cohnii (ATCC 30541). This strain was grown on acetic acid in pH-stat fermenters as described in Example 1 with and without the inclusion of propionic acid at 1% of the volume of the initial culture medium. [table]

[4] = first culture, acetic acid pH-stat
[5] = 1% propionic acid versus without
[6] = propionic acid 1%, samples after 140-150 hours growth

CCC(=O)O [propionic acid]
amount of DHA produced (overall) [1, 4]: 6 to 8 g/L
cellular lipid content [1, 4]: 55-65 % of the dry cell weight
content of docosahexaenoic acid [1, 4]: 35-40 % of the total lipid
forms of the microorganism present (cysts / swimmers), microscopic observation ([1]; first culture, after 24 hours): only non-motile cysts were present
dry cell weight in the first culture (with propionic acid) relative to the second culture (without propionic acid) ([1]; acetic acid/acetate carbon source, later stages of the cultures, FIG. 2): approximately double
amount of total lipid produced relative to the fourth culture (without propionic acid) ([2]; FIG. 4): greater than twice
amount of docosahexaenoic acid produced relative to the fourth culture (without propionic acid) ([2]; FIG. 5): greater than twice
dry cell weight greater than in the fourth culture (without propionic acid) ([2]; later stages of the culture, FIG. 3): about 20%
increase in the amount of docosahexaenoic acid produced in the culture [3, 5]: about 85%
increase in the dry cell weight produced in the culture [3, 5]: over 60%
Cell dry wt [3, 6]: 75 g/L
DHA in lipid [3, 6]: 33 % w/w
Lipid in cells [3, 6]: 20 % w/w
Total DHA produced [3, 6]: 5 g/L
